Source: US7297771B2 (priority 1992, dated 2007)

Columns and labels:
[1] = molecular target: T1, delta opioid receptor of NG 108-15 cells (Mus musculus, UniProt P32300); experiment: biochemical; type: binding
T1 construct: NG 108-15 cells, which express the delta opioid receptor naturally; endogenous in cells; host or cells: NG 108-15 cells (membranes)

[2] = molecular target: K56 receptor (mouse delta opioid receptor) (Mus musculus, UniProt P32300); experiment: biochemical
K56 receptor (mouse delta opioid receptor), sequence (P32300 whole entry): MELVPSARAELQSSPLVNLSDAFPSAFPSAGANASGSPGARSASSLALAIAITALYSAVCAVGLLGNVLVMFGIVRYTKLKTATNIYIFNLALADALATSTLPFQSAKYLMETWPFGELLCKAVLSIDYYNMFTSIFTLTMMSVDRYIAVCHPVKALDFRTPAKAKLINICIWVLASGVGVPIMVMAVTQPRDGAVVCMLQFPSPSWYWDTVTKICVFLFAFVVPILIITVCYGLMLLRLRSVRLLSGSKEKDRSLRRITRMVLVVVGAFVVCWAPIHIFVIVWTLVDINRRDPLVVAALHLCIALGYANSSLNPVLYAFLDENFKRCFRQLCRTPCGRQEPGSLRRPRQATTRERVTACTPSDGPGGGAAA

T1 sequence (P32300 whole entry): as above

Structure (SMILES)	Ki [1]	Ki ([2]; PKi Cos K56)	Ki ([2]; inhibition constant Ki)
CCC12CCN(CC3(O)CC3)C(Cc3ccc(O)cc31)C2(C)C (stereo not shown) [Bremazocine, bremazocine]	1.78 nM	5.62 nM	5.7 nM
CN1CC[C@]23CCCC[C@H]2[C@H]1Cc1ccc(O)cc13 [Levorphanol, levorphanol]			20.9 nM
